From patent US10351609B2, “Cell-based assay for determining mTOR activity” (Medical Diagnostic Laboratories, LLC, priority 2016, dated 2019)
Like-named read-outs stand apart in the source and are kept apart here.

Legend:
mTOR [1] = biological target: T1, mTOR (Homo sapiens, UniProt P42345); format: cell-based; settings: 3A1 clone transiently transfected with SB-eIF4E/LB-4E-BP2, FIG. 11
From the text: We compared single-cell clone termed “3A1” (FIG. 10A,B) with single-cell clone termed “1C3” (FIG. 10C,D) in the assay containing either LB-4E-BP1(Figure 10A,C) or LB-4E-BP2 (FIG. 10B,D).

mTOR [2] = biological target: T1, mTOR; assay: 3A1 clone with stable expression of SB-eIF4E/LB-4E-BP2 (stable pool and single-cell clones); format: cell-based; settings: 3A1 stable cell line pool expressing SB-eIF4E/LB-4E-BP2, FIG. 12
Procedure: Taking the 3A1 clone, we created a stable cell line pool (cells that underwent a minimum of 2 weeks of hygromycin selection) with stable expression of SB-eIF4E/ LB-4E-BP2.
Three to five days after transfection, the transfected cells were trypsinized and replated on to 6-count of 10 cm plates containing 300 μg/ml of hygromycin (ThermoFisher). For 7 days, media was replaced every 2-3 days with fresh hygromycin, after which cells were trypsinized, pooled and concentrated, and counted for plating as single cells on to 96-well plates. Fifty ml containing 400 cells were plated on to 5-count of 96-well plates with each well containing 100 μl of media+cell. DMEM conditioned with previous incubation with HEK293 cells was saved, filtered, and used for single-cell plating. The remainder of the hygromycin treated cells was then pooled and used as “stable pools” for experimentation.

WT mTOR [3] = biological target: T2, WT mTOR (Homo sapiens, UniProt P42345); assay: 3A1 clone stably expressing SB-eIF4E, transiently expressing LB-4E-BP2 and WT mTOR; format: cell-based; settings: 3A1 stably SB-eIF4E, concentration curves at least 5 logs, FIG. 16
T2 construct: our assay has the ability to measure the function of full-length mTOR and its genetic variants; expressed in transfected cells
From the text: (§1) To overcome this issue, we created a stable cell pool with the 3A1 clone, stably expressing only SB-eIF4E.

S2035I mTOR [4] = biological target: T3, S2035I mTOR (Homo sapiens, UniProt P42345, S2035I); assay: 3A1 clone stably expressing SB-eIF4E, transiently expressing LB-4E-BP2 and S2035I mTOR; format: cell-based; settings: 3A1 stably SB-eIF4E, concentration curves at least 5 logs, FIG. 16
T3 construct: our assay has the ability to measure the function of full-length mTOR and its genetic variants; expressed in transfected cells
From the text: as §1

WT mTOR [5] = biological target: T2, WT mTOR; assay: B10 clone (4E-BP dKO, MTOR genomic modification) stably expressing SB-eIF4E, transient LB-4E-BP2 and WT mTOR; format: cell-based; settings: FIG. 18
From the text: With the goal of our assay to measure the effects of mTOR mutations in combination with different types of mTOR inhibitors, we performed our assay using the B10 cell clone stably expressing SB-eIF4E and transiently expressing LB-4E-BP2 and either WT or L2185A mTOR.

S2035I mTOR [6] = biological target: T3, S2035I mTOR; assay: B10 clone stably expressing SB-eIF4E, transient LB-4E-BP2 and S2035I mTOR; format: cell-based; settings: FIG. 18
[7] = test system: phosphorylation of the ribosomal protein S6; settings: Guichard et al., 2015; read-out: IC50 for inhibition of phosphorylation of the ribosomal protein S6; cited from earlier work
cellular proliferation = settings: Hsieh et al., 2012; read-out: EC50 for the inhibition of cellular proliferation; cited from earlier work
[8] = test system: phosphorylation of 4E-BP1; settings: read-out: reported IC50 in inhibiting phosphorylation of 4E-BP1; Western blot; Sedrani et al., 1998; cited from earlier work

Structure (SMILES) | concentration dependence of luminescence (mTOR [1]) | concentration dependence of luminescence (mTOR [2]) | concentration dependence of signal (WT mTOR [3]) | concentration dependence of signal (S2035I mTOR [4]) | concentration dependence of signal (WT mTOR [5]) | concentration dependence of signal (S2035I mTOR [6]) | IC50 [7] | EC50 (cellular proliferation) | IC50 [8]
CNC(=O)c1cccc(-c2ccc3c(N4CCOC[C@@H]4C)nc(N4CCOC[C@@H]4C)nc3n2)c1 [AZD2014] | concentration dependent activation | concentration-dependent activation of luminescence | concentration-dependent increase in signal | concentration-dependent increase | concentration-dependent increase for both mTORs | concentration-dependent increase for both mTORs | 210 nM |  | 
CO[C@H]1CC[C@H](N2C(=O)CNc3ncc(-c4ccc(C(C)(C)O)nc4)nc32)CC1 [CC223] |  | concentration-dependent increase in luminescence |  |  |  |  |  |  | 
CC(C)n1nc(-c2ccc3oc(N)nc3c2)c2c(N)ncnc21 [INK128] | concentration dependent activation | concentration-dependent activation of luminescence | concentration-dependent increase in signal | concentration-dependent increase | concentration-dependent increase for both mTORs | concentration-dependent increase for both mTORs |  | 17 nM | 
CO[C@@H](C)Cn1c(=O)n(C)c2cnc3ccc(-c4cncc(C(C)(C)O)c4)cc3c21 [LY3023414] |  | concentration-dependent increase in luminescence |  |  |  |  |  |  | 
CCc1cncnc1N1CCN(Cc2nc3ccc(C(F)(F)F)cc3[nH]2)CC1 [PF4708671] |  | did not |  |  |  |  |  |  | 
CO[C@H]1C[C@@H]2CC[C@@H](C)[C@@](O)(O2)C(=O)C(=O)N2CCCC[C@H]2C(=O)O[C@H]([C@H](C)C[C@@H]2CC[C@@H](OCCO)[C@H](OC)C2)CC(=O)[C@H](C)/C=C(\C)[C@@H](O)[C@@H](OC)C(=O)[C@H](C)C[C@H](C)/C=C/C=C/C=C/1C [everolimus] | concentration dependent activation | concentration-dependent activation of luminescence | concentration-dependent increase in signal | rapamycin resistance |  | cleaner difference between the WT and S2035I mTOR |  |  | 1.6 to 2.4 nM
